For test [1], the system named is PDGF primary neurospheres. Kind of test: Secondary neurosphere formation from dissociated PDGF-derived primary neurospheres. The class given is cell-based, mouse. The conditions noted are these: single PDGF primary neurospheres dissociated in 20 ng/ml EGF or 100 ng/ml PDGF-AA; 7 or more days in vitro. The method, then: Single PDGF primary neurospheres prepared as described in Example 1 were transferred into 96-well plates and mechanically dissociated in either the presence of 20 ng/ml EGF (Peprotech) or 100 ng/ml PDGF-AA. The formation of secondary neurospheres was assayed after 7 or more days in culture in vitro.

A further test concerns primary EGF neurospheres. The experiment in a line: Secondary neurosphere formation from dissociated EGF-derived primary neurospheres. The note with it: single primary EGF-generated neurospheres dissociated in EGF- or PDGF-containing media; eight wells per condition; Exp. #1 and #2. Type of test: cell-based, mouse. On the procedure:
To determine if the neurospheres derived in EGF-containing media have different proliferation properties as those of PDGF-generated neurospheres, primary EGF neurospheres were generated from embryonic day 14 striatum by culturing dissociated striatum in EGF (20 ng/ml) containing define culture media at a cell density of 200,000 cells/ml. Subsequently, individual neurospheres were isolated, placed in individual wells in either PDGF or EGF containing media, and dissociated mechanically. The numbers of secondary neurospheres that came from a single primary EGF-generated neurospheres are given below (eight wells for each condition; numbers indicate average number of secondary neurospheres/well): […]

Test [2] relates to medial ganglionic eminence (MGE). Kind of test: Neurosphere formation using medial ganglionic eminence. The class given is cell-based, mice. The conditions noted are these: MGE from E14 embryos, cultured as in Example 1 with EGF or PDGF; n = 2 or 3. The source says: (§1) In order to locate the cells that give rise to the novel progenitor cells described herein, we dissected ganglionic eminence to two portions. Thus, the ganglionic eminence was isolated from E14 embryos of mice, and the medial ganglionic eminence (MGE) was separated from the lateral ganglionic eminence (LGE). MGE and LGE were then dissociated and cultured as described in Example 1. The resulting primary culture was exposed to EGF or PDGF in addition to the defined culture media, and the number of neurospheres were counted and summarized below.

Test [3] deals with lateral ganglionic eminence (LGE). The experiment in a line: Neurosphere formation using lateral ganglionic eminence. Type of test: cell-based, mice. The note with it: LGE from E14 embryos, cultured as in Example 1 with EGF or PDGF; n = 2 or 3.
Description: as §1

Test [4] relates to brain tissue prepared as described in Example 1 (E14 striatum). The experiment in a line: Combined effect of PDGF and EGF on number of neurospheres formed. The class given is cell-based, mouse. The conditions noted are these: cultured in PDGF, EGF, or the combination of PDGF and EGF. The method, then: (§2) E14 striatum was mechanically dissociated as previously described (for example see U.S. Pat. Nos. 5,750,376; 5,980,885; or 5,851,832) and plated at 10,000 cells/ml in 6 well plates in defined culture media plus 100 ng/ml of PDGF-AA (Peprotech). The composition of defined culture media is as follows: • DMEM/F12 (1:1) • glucose (0.6%) • glutamine (2 mM) • sodium bicarbonate (3 mM) • HEPES (5 mM) • insulin (25 μg/ml) • transferrin (100 μg/ml) • progesterone (20 nM) • putrescine (60 μM) • selenium chloride (30 nM)
We also tested the effect of combining PDGF and EGF on the number of neurospheres formed. Thus, brain tissue was prepared as described in Example 1 and cultured in the presence of PDGF, EGF, or the combination of PDGF and EGF.

In test [5] the test system is PDGF-derived neurospheres. Kind of test: Effect of Tyrphostin AG 1296 on primary neurosphere formation in response to PDGF. The class given is cell-based, mouse. The method, then: (§3) In order to determine if the PDGF-induced primary neurosphere formation is mediated by the PDGF receptor kinase, a selective PDGF receptor kinase inhibitor, Tyrphostin AG 1296, was added to neurosphere culture. Primary cells were cultured at 10,000 cells/ml in the presence of either EGF or PDGF, plus 5 μM of Tyrphostin AG 1296 (Sigma) or DMSO in the same volume as Tyrphostin (DMSO being the solvent for Tyrphostin). Results are expressed below as the percentage of neurospheres formed, with the number of PDGF- or EGF-derived neurospheres arbitrarily set at 100%, respectively.

A further test concerns EGF-derived neurospheres. The experiment in a line: Effect of Tyrphostin AG 1296 on primary neurosphere formation in response to EGF. The class given is cell-based, mouse. On the procedure: as §3
Another test deals with E14 striatum. Kind of test: PDGF-induced production of primary neurospheres from dissociated E14 striatum. Type of test: cell-based, mouse. On the procedure: as §2
Neurospheres, which are clusters of neural cells derived from single cells, formed after 7 days of culture in vitro (DIV). Six wells per experiment were counted for neurosphere production and the results are shown below:
In control experiments, wherein PDGF was omitted from the culture media, no neurospheres formed. Therefore, PDGF is capable of inducing neurosphere production from single precursor cells in the absence of serum, EGF, TGF-α and FGF-2.

Several values for one entry are separate records, joined by “and”; a condition that tells them apart may be missing. Equal entries are not always repeated. Entries after “also recorded” stand apart in the source; their conditions may differ.

For the substance “EGF: epidermal growth factor (Peprotech), used at 20 ng/ml”, the “Average # of secondary neurospheres formed/well” value in test [1] is on record as 3.12 ± 1.64 (n = 3). In the test on primary EGF neurospheres, the “average number of secondary neurospheres/well” value is 27 and 14.1. Also, the “Average number of neurospheres” value in test [2] worked out at 16.9 ± 2.87; in test [3], 9.64 ± 1.59; in test [4] it was 80.5 ± 8.57.

Turning to Tyrphostin AG 1296, the “Effect on primary neurosphere formation induced by PDGF (in words)” value in test [5] (5 μM Tyrphostin AG 1296) is listed as “inhibited; also recorded: almost abolished”. For the same substance, the “percentage of neurospheres formed” value in test [5] (PDGF plus 5 μM Tyrphostin AG 1296, 10,000 cells/ml, PDGF alone set at 100%, n = 3 to 9) is listed as 10%; with EGF-derived neurospheres (EGF plus 5 μM Tyrphostin AG 1296, 10,000 cells/ml, EGF alone set at 100%, n = 3 to 9), 55%. For the same substance, the “Effect on EGF-derived neurosphere formation (in words)” value with EGF-derived neurospheres (5 μM Tyrphostin AG 1296) is on record as “inhibited by Tyrphostin AG 1296 to some extent”.

Consider “PDGF: platelet derived growth factor; PDGF-AA (Peprotech) used at 100 ng/ml”, for which the “Average number of neurospheres produced/well, average of experiments 1-6” value in the test on E14 striatum (100 ng/ml PDGF-AA, 10,000 cells/ml, 7 DIV, mean over six experiments) was “average = 17.7 ± 5.0”. Besides, the “Average number of neurospheres produced/well” value in the test on E14 striatum (100 ng/ml PDGF-AA, 10,000 cells/ml, defined media, 7 DIV, single experiments, six wells each) is 14.5 and 9.2 and 8.6 and 7.7; in the test on E14 striatum (as E1, experiments marked *: PDGF used immediately after reconstitution in defined culture media), 34.3* and 32.5*. In the test with E14 striatum (relative to PDGF not used immediately after reconstitution), the “Potency when used immediately after reconstitution in defined culture media” value was “*PDGF appears to be approximately 3 fold more potent when used immediately after reconstitution in defined culture media”. Moreover, the “Average # of secondary neurospheres formed/well” value in test [1] is given as 0. Further, the “average number of secondary neurospheres/well” value in the test on primary EGF neurospheres is 21.5 and 26.7. Further, the “Average number of neurospheres” value in test [2] is 10.22 ± 1.11; in test [3], 1.27 ± 0.45; in test [4], 73.36 ± 7.13.

Source of the values: patent US7943376B2, “Platelet derived growth factor (PDGF)-derived neurospheres define a novel class of progenitor cells” (Stem Cell Therapuetics Inc., priority 2001, dated 2011).
